Target: T1, GRM7 (Homo sapiens, UniProt Q14831)
T1 construct: purchased Promega (in-house HiBiT-GPCR construct library, NanoBRET)
Test: NanoBRET screen HiBiT-GRM7 in HEK293
Assay type: binding
Protocol: Each tracer candidate was screened across the entire library of HiBiT-GPCR constructs using NanoBRET as the detection modality. As depicted in Figure 4A, the specificity of interactions was evaluated through decrease in BRET due to competitive displacement of a bound tracer by excess parental compound. Each tracer was analyzed for binding to each HiBiT-GPCR fusion in the absence and in the presence of competing parental compound. Briefly, HEK293 cells were transfected with HiBiT-GPCR constructs diluted into promoterless DNA to reduce expression and maximize translocation to the cell surface. Each tracer candidate was then screened at concentrations of 1 μM and 0.1 μM across cells expressing these fusions. Cells were treated for 1.5 h with tracer either alone or in the presence of 20 μM competing parental compound (i.e., control). BRET was measured upon addition of purified LgBiT and subsequent complementation with HiBiT genetically fused to a GPCR. The specificity of interactions was assessed through a decrease in BRET signal due to competitive displacement of the bound tracer. To further gauge the robustness of these interactions, the fold response over the control (i.e., BRETtracer/BRETcontrol) was calculated. We chose a 1.5-fold response, which translates to ≥7-fold signal over noise as the minimal threshold required to score an interaction as positive.
HiBiT-GPCR DNA constructs were diluted in 10 mM Tris pH 8 to a final concentration of 0.01 μg/μL, arrayed in 96-well plates and stored at −20 °C. For transfection, HEK293 cells were suspended in Opti-MEM (without phenol red) supplemented with 2% fetal bovine serum (Seradigm) and 100 units/mL penicillin–streptomycin (Gibco) at a final concentration of 220,000 cells/mL and dispensed into white 96-well plates at 90 μL/well. Subsequent transfections and screens were carried using an Agilent Bravo Automated Liquid Handling Platform. First, the 96-well HiBiT DNA arrays were diluted 25-fold in Opti-MEM (without serum or phenol red) to a final concentration of 0.0004 μg/μL and 20 μL of the diluted DNAs were transferred into new 96-well plates. Next, promoterless carrier DNA (1 μg/μL) was diluted 25-fold (0.04 μg/μL) and then dispensed into the diluted arrays at 20 μL/well. Following brief mixing, Viafect transfection reagent (Promega) diluted 16-fold into Opti-MEM was dispensed into the plates at 40 μL/well. After mixing by pipetting, plates were incubated for 10 min on the pipetting station deck. The DNA-transfection reagent complexes were then added to plates containing cells. To facilitate the screen, 10 μL of DNA-transfection reagent complexes were added in duplicates to the top 4 and bottom 4 rows, resulting in two identical 48-well arrays per plate. Plates with transfected cells were incubated for 18–20 h at 37 °C/5% CO2. A screen of each tracer across the entire library using two different concentrations requires duplicate plates of transfected cells. Depending on the number of tracers being screened, transfections can be scaled up using the same ratios. The next day, for each tracer, four 20× screening solutions in tracer dilution buffer (Promega) were prepared: two duplicates at final concentration of 20 μM and two duplicates at a final concentration of 2 μM. […] The four resulting solutions were diluted 4-fold in Opti-MEM without serum or phenol red to generate 5× solutions (5 µM and 0.5 µM tracer +/− 100 μM competing compound). To screen the library, a BioTek MultiFlo FX liquid dispenser was used to dispense 22.5 µL of tracer solution to the top 4 rows and 22.5 µL tracer + competing compound solution to the 4 bottom rows. Plates were briefly mixed on an orbital shaker and incubated for 1.5 h at room temperature. […] Plates were briefly mixed on an orbital shaker and incubated for 15 min to allow complementation.

T1 sequence (Q14831 35-915): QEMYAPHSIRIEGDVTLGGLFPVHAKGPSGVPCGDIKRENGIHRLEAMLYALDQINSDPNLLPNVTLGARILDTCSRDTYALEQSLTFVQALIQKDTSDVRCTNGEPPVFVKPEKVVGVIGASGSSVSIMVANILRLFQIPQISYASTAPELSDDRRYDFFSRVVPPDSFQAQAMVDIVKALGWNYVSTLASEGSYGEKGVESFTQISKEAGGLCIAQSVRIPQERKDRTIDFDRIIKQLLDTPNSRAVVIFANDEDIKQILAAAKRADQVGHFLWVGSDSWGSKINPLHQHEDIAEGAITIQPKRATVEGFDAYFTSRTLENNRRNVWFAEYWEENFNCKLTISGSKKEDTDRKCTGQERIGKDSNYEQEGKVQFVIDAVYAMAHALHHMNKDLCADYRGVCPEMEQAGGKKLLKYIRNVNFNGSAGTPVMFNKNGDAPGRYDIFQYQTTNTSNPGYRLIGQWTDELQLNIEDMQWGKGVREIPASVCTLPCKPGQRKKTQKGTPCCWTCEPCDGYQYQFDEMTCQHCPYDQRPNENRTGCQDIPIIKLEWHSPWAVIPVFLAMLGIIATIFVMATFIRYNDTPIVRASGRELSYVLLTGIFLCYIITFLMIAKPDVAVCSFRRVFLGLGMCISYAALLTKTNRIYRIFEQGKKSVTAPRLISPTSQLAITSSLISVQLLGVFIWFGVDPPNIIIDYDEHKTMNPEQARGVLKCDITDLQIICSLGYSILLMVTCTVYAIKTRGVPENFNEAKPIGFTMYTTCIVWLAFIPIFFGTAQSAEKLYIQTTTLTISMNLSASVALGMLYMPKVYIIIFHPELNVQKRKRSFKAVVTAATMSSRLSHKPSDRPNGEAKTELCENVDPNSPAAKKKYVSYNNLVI

SMILES	NanoBRET Fold Response (GRM7, tracer 0.1μM)	NanoBRET Fold Response (GRM7, tracer 1μM)	also measured
CN1CCN(C2=Nc3cc(Cl)ccc3Nc3ccc(CNC(=O)CCOCCOCCOCCOCCNC(=O)CCc4ccc5n4[B-](F)(F)[N+]4=C(c6ccc[nH]6)C=CC4=C5)cc32)CC1 [Clozapine-b-2-NB590]	–	–	NanoBRET Fold Response (GRM7, 0.1μM tracer): 1.04; NanoBRET Fold Response (GRM7, 1μM tracer): 0.93
CN(C)CCC=C1c2ccccc2CCc2ccc(C(=O)NCCNC(=O)CCOCCOCCOCCOCCNC(=O)CCc3ccc4n3[B-](F)(F)[N+]3=C(c5ccc[nH]5)C=CC3=C4)cc21 [Amitriptyline-b-2-NB590]	1.09	1.00	–
CCOC(=O)c1cc(C#N)c(N2CCC(C(=O)NS(=O)(=O)Cc3ccccc3/C=C/C(=O)NCCNC(=O)CCc3ccc4n3[B-](F)(F)[N+]3=C(c5ccc[nH]5)C=CC3=C4)CC2)nc1C [AZD1283-1-NB590]	–	–	NanoBRET Fold Response (GRM7, 0.1μM): 0.98; NanoBRET Fold Response (GRM7, 1μM): 1.05
CC(C)N(CC[C@H](c1ccccc1)c1cc(CCNC(=O)CCOCCOCCOCCOCCNC(=O)CCc2ccc3n2[B-](F)(F)[N+]2=C(c4ccc[nH]4)C=CC2=C3)ccc1O)C(C)C [Tolterodine-2-NB590]	1.18	0.89	–
CC(C)N(CC[C@H](c1ccccc1)c1cc(CCNC(=O)c2ccc(CNC(=O)CCc3ccc4n3[B-](F)(F)[N+]3=C(c5ccc[nH]5)C=CC3=C4)cc2)ccc1O)C(C)C [Tolterodine-BZ-NB590]	0.99	1.02	–
O=C(CCOCCOCCOCCOCCNC(=O)CCc1ccc2n1[B-](F)(F)[N+]1=C(c3ccc[nH]3)C=CC1=C2)NCCCN1CCN(C2=Nc3ccccc3Oc3ccc(Cl)cc32)CC1 [Loxapine-a-2-NB590]	1.07	1.12	–
CN1CCN(C2=Nc3cc(Cl)ccc3N(CC(=O)NCCOCCOCCOCCOCCNC(=O)CCc3ccc4n3[B-](F)(F)[N+]3=C(c5ccc[nH]5)C=CC3=C4)c3ccccc32)CC1 [Clozapine-c-2-NB590]	–	–	NanoBRET Fold Response (GRM7, 0.1μM tracer): 1.00; NanoBRET Fold Response (GRM7, 1μM tracer): 1.03
Cc1nc2n(c(=O)c1CCN1CCC(c3noc4cc(F)ccc34)CC1)CCCC2OC(=O)NCCOCCOCCOCCOCCNC(=O)CCc1ccc2n1[B-](F)(F)[N+]1=C(c3ccc[nH]3)C=CC1=C2 (stereo not shown) [Risperidone-2-NB590]	1.00	1.00	–
COc1ccc2[nH]c(-c3ccc(CNC(=O)CCOCCOCCOCCOCCNC(=O)CCc4ccc5n4[B-](F)(F)[N+]4=C(c6ccc[nH]6)C=CC4=C5)cc3)c(CCNC(C)=O)c2n1 [AzomelatoninICO9-2-NB590]	–	–	NanoBRET Fold Response (0.1μM tracer): 1.03; NanoBRET Fold Response (1μM tracer): 1.08
COc1ccccc1N1CCN(CCCCN2C(=O)c3ccc(CNC(=O)CCOCCOCCOCCOCCNC(=O)CCc4ccc5n4[B-](F)(F)[N+]4=C(c6ccc[nH]6)C=CC4=C5)cc3C2=O)CC1 [NAN-190-2-NB590]	1.00	–	–
O=C(CCc1ccc2n1[B-](F)(F)[N+]1=C(c3ccc[nH]3)C=CC1=C2)NCCOCCOCCNC(=O)OCCOCCN1CCN(C2=Nc3ccccc3Sc3ccccc32)CC1 [Quetiapine-a-2-NB590]	1.03	1.05	–
O=C(CCOCCOCCOCCOCCNC(=O)CCc1ccc2n1[B-](F)(F)[N+]1=C(c3ccc[nH]3)C=CC1=C2)NCCCN1CCN(C2=Nc3cc(Cl)ccc3Nc3ccccc32)CC1 [Clozapine-a-2-NB590]	–	–	NanoBRET Fold Response (GRM7, 0.1μM tracer): 0.95; NanoBRET Fold Response (GRM7, 1μM tracer): 0.92
N#CN=C(NCCCOc1cccc(CN2CCCCC2)c1)NCCNC(=O)CCOCCOCCOCCOCCNC(=O)CCc1ccc2n1[B-](F)(F)[N+]1=C(c3ccc[nH]3)C=CC1=C2 [Aminopotentidine-2-NB590]	0.98	1.05	–
O=C(CCc1ccc2n1[B-](F)(F)[N+]1=C(c3ccc[nH]3)C=CC1=C2)NCc1ccc(C(=O)NCCOCCOCCNCC(O)COc2cccc3ccccc23)cc1 (stereo not shown) [Propranolol-3-NB590]	–	–	NanoBRET Fold Response (GRM7, 0.1μM): 1.00; NanoBRET Fold Response (GRM7, 1μM): 0.97
O=C(CCc1ccc2n1[B-](F)(F)[N+]1=C(c3ccc[nH]3)C=CC1=C2)NCc1ccc(C(=O)NCCOCCC(=O)N[C@@H]2CC[C@@]3(O)[C@H]4Cc5ccc(O)c6c5[C@@]3(CCN4CC3CC3)[C@H]2O6)cc1 [Naltrexone-3-NB590]	1.01	0.93	–
COc1ccccc1N1CCN(CCCCN2C(=O)c3ccc(CNC(=O)CCOCCNC(=O)c4ccc(CNC(=O)CCc5ccc6n5[B-](F)(F)[N+]5=C(c7ccc[nH]7)C=CC5=C6)cc4)cc3C2=O)CC1 [NAN-190-3-NB590]	1.01	0.95	–
Cc1cc2c(s1)Nc1ccccc1N=C2N1CCN(CCCNC(=O)CCOCCOCCOCCOCCNC(=O)CCc2ccc3n2[B-](F)(F)[N+]2=C(c4ccc[nH]4)C=CC2=C3)CC1 [Olanzapine-a-2-NB590]	1.00	1.02	–
CCCn1c(=O)c2[nH]c(-c3ccc(OCC(=O)NCCNC(=O)CCOCCNC(=O)c4ccc(CNC(=O)CCc5ccc6n5[B-](F)(F)[N+]5=C(c7ccc[nH]7)C=CC5=C6)cc4)cc3)nc2n(CCC)c1=O [XAC-3-NB590]	1.03	1.07	–
COc1ccc2c(n1)c(CCNC(C)=O)cn2CCNC(=O)CCc1ccc2n1[B-](F)(F)[N+]1=C(c3ccc[nH]3)C=CC1=C2 [Azamelatonin-1-NB590]	–	–	NanoBRET Fold Response (0.1μM tracer): 1.10; NanoBRET Fold Response (1μM tracer): 1.16
